Converted amounts (≈) assume the structure as drawn. “Also recorded” adds a separate entry of the source.
Tests used:
Assay type in all cases: physicochemical
[1] = Hygroscopicity test (DVS); conditions: for Moisture Absorption at 25° C./80% RH: DVS, isothermal 25° C.; for Hygroscopicity (DVS analysis, in words): 25° C., relative humidity 5-95%, EP standard 25° C., 80% RH
Description: Using a DVS (dynamic vapor absorption, VTI SGA-100, TA Instruments) which is a vapor adsorption and desorption device, crystalline forms Y and S of lifitegrast obtained from the Examples and crystalline form A of lifitegrast obtained from the Comparative Example were subjected to moisture adsorption and desorption once repeatedly, respectively, at an isothermal condition of 25° C. and in a relative humidity range of 5-95% with an interval of 5% RH.

Solubility test in water = conditions: for Solubility in water: stirred at room temperature; for Solubility compared with that of crystalline form A: room temperature, relative to crystalline form A
Description: After crystalline forms Y and S of lifitegrast obtained from the Examples and crystalline form A of lifitegrast obtained from the Comparative Example were dissolved in water, respectively, they were sufficiently stirred at room temperature to perform a solubility test.

[2] = Thermal stability test (XRPD and HPLC after storage); conditions: 40° C./75% RH, 4 weeks, brown vial in aluminum pouch
Description: 50 mg of crystalline form Y and 50 mg of crystalline form S obtained from the Examples were put into brown vials, respectively, and secondary packaging was carried out in an aluminum pouch, followed by storing at 40±2° C. and 75±5% RH. After 4 weeks, each sample was taken out, X-ray powder diffraction (XRPD) analysis was performed to evaluate the stability of the crystalline form, and high performance liquid chromatography (HPLC) analysis was performed to evaluate the generation and increase of related substances.
The results of the X-ray powder diffraction (XRPD) analysis and high performance liquid chromatography (HPLC) analysis are shown in Table 5 and 6, respectively.

For `CS(=O)(=O)c1cccc(C[C@H](NC(=O)c2c(Cl)cc3c(c2Cl)CCN(C(=O)c2ccc4ccoc4c2)C3)C(=O)O)c1` [Crystalline Form A, lifitegrast], the “Moisture Absorption at 25° C./80% RH” value [1] was 1.0% and the Solubility in water (Solubility test in water) was 32 µg/mL (≈ 52 µM).
With `CS(=O)(=O)c1cccc(C[C@H](NC(=O)c2c(Cl)cc3c(c2Cl)CCN(C(=O)c2ccc4ccoc4c2)C3)C(=O)O)c1` [Crystalline Form S, lifitegrast] the “Generation and increase of related substances (HPLC analysis)” value [2] was “no related substance was observed; also recorded: No generation of Related”, the “Stability of the crystalline form (XRPD analysis)” value [2] was “did not change in appearance and polymorphism; also recorded: Retention of Crystalline Form” and the “Hygroscopicity (DVS analysis, in words)” value [1] was “low hygroscopicity; also recorded: lower hygroscopicity than the crystalline form A”. For the same molecule, the “Moisture Absorption at 25° C./80% RH” value [1] was 0.1%, the “Solubility compared with that of crystalline form A” value (Solubility test in water) was “twice or more” and the Solubility in water (Solubility test in water) was 64 µg/mL (≈ 104 µM).
With `CS(=O)(=O)c1cccc(C[C@H](NC(=O)c2c(Cl)cc3c(c2Cl)CCN(C(=O)c2ccc4ccoc4c2)C3)C(=O)O)c1` [Crystalline Form Y, lifitegrast] the “Generation and increase of related substances (HPLC analysis)” value [2] was “no related substance was observed; also recorded: No generation of Related”, the “Stability of the crystalline form (XRPD analysis)” value [2] was “did not change in appearance and polymorphism; also recorded: Retention of Crystalline Form” and the “Hygroscopicity (DVS analysis, in words)” value [1] was “low hygroscopicity”. The “Moisture Absorption at 25° C./80% RH” value [1] was 2.9%, the “Solubility compared with that of crystalline form A” value (Solubility test in water) was “twice or more” and the Solubility in water (Solubility test in water) was 67 µg/mL (≈ 109 µM).

Reference: patent US12492192B2, “Crystalline form of lifitegrast, and pharmaceutical composition comprising the same” (YS LIFE SCIENCE CO. LTD., priority 2020, dated 2025)
